From patent US20200246316A1, “METHODS OF TREATING POST-SURGICAL PAIN WITH A THIAZOLINE ANTI-HYPERALGESIC AGENT” (CERSCI THERAPEUTICS, INC., priority 2019, published 2020)
“And” between values parts separate entries of the source, which are not always exact repeats. Equal entries are not always repeated. “Also recorded” adds a separate entry of the source. Structures can show the parent of a compound that is named as a salt. Where two headings read alike, the source gives them in different places.

How the values were obtained:
[1] = Cytotoxicity by lactate dehydrogenase (LDH) release; format: cell-based; conditions: human, HEK293 cells; read-out: percent cytotoxicity (LDH release)
P-gp = target: T1, P-gp (Homo sapiens, UniProt P08183); assay: Inhibition of efflux (ABC) transporters; format: in vitro ADME
T1 construct: Caco-2 cells; endogenous in cells; host or cells: Caco-2 cells
T1 sequence (P08183 whole entry): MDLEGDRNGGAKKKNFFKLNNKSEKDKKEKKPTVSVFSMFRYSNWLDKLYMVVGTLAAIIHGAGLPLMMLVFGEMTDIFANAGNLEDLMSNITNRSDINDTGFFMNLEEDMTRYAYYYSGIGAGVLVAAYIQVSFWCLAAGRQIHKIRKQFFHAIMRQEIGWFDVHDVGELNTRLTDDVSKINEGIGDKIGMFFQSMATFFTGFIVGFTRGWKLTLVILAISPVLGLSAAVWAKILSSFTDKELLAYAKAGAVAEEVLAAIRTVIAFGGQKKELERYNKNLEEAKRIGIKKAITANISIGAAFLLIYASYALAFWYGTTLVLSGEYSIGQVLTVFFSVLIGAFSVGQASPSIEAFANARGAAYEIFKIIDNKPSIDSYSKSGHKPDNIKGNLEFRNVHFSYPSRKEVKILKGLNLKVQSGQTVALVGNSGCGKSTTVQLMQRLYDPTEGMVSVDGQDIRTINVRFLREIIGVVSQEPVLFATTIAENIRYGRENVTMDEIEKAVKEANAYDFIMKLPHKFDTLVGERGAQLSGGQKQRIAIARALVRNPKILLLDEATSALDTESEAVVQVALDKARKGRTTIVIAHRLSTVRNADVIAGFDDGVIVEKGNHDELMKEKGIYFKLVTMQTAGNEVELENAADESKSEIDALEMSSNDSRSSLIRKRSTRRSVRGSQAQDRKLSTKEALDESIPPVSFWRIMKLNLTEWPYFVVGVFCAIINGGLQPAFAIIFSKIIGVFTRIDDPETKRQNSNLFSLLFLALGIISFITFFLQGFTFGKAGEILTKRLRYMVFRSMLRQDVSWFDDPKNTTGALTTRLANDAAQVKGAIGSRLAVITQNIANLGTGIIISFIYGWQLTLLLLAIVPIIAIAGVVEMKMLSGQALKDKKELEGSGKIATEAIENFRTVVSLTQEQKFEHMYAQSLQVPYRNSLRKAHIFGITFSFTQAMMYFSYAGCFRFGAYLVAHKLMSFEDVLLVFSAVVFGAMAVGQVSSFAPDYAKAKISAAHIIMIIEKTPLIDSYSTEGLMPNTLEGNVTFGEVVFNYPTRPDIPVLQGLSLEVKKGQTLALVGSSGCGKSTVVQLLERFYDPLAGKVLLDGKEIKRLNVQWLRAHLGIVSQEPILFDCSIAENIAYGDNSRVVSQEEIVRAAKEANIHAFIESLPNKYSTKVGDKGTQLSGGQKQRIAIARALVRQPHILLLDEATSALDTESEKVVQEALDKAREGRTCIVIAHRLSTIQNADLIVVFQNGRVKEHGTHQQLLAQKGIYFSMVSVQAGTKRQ

[2] = Stability in plasma from a variety of species; format: in vitro ADME
Excerpt: Further metabolism work in additional species will be undertaken.

[3] = Log D distribution coefficient (PBS buffer/octanol); format: physicochemical
Description: Compound 1 has a Log D distribution coefficient at pH 7.2 of −0.07 (3 mL PBS Buffer: 1 mL Octanol) and −0.39 (2 mL PBS Buffer: 2 mL Octanol), where PBS is phosphate buffer solution.

[4] = Cytotoxicity by lactate dehydrogenase (LDH) release; format: cell-based; conditions: dog, MDCKII control cells, read-out: percent cytotoxicity (LDH release)
[5] = Protein binding across species; format: in vitro ADME
peroxynitrite (PN) = assay: Chemical-based assays of peroxynitrite (PN) oxidation; format: biochemical
Excerpt: In cell-based assays of PN-mediated cytotoxicity, Compound 1 is protective. […] Chemically, Compound 1 can also react stoichiometrically with peroxynitrite to form a para-nitro adduct. Without being bound by theory, by targeting and removing peroxynitrite and peroxide, Compound 1 can disrupt the ensuing cascades that lead to hypersensitivity (protein modification, ion channel hyperexcitation) thus providing a long duration event in terms of pain relief.

[6] = test system: rat models of diabetic neuropathy; assay: Rat models of diabetic neuropathy (streptozotocin- and methylglyoxal-induced); format: in vivo; conditions: mono-hydrochloride
Excerpt: In various embodiments, Compound 1 is efficacious in in vivo animal models of acute post-incisional hyperalgesia, both prophylactically and palliatively. […] In various embodiments, less than about 1%, 0.8%, 0.6%, 0.4%, 0.2%, 0.1%, 0.08%, 0.06%, 0.04%, 0.02%, or 0.01% of Compound 1 in blood plasma penetrates the BBB.

[7] = Rat pharmacokinetics after single PO dose; conditions: for Compound 1 Concentration in rat plasma: 100 mg/kg single PO, individual animals
Description: In both assays, a deuterated (Compound 1-d4) internal standard was used.
The objective of this non-GLP study was to determine the pharmacokinetics of Compound 1 after a single oral (gavage) dose in rats, and to determine if Compound 1 undergoes epimerization in the rat. Compound 1 was administered to CD® IGS [Crl:CD(SD)] (Sprague Dawley) rats (5/sex/group) as a single oral gavage dose of 100 mg/kg in a vehicle of 0.5% aqueous HPMC. Rats were dosed at a dose volume of 10 mL/kg body weight.

[8] = Dog pharmacokinetics after single PO (10 mg/kg) and IV (3 mg/kg) dose; format: in vivo; conditions: for bioavailability: 10 mg/kg PO vs 3 mg/kg IV
Description: The objective of the first single dose non-GLP study in dogs was to determine the pharmacokinetics and bioavailability of Compound 1 after a single oral (gavage) or single intravenous (IV) dose in dogs. The test article formulation was administered to three male dogs orally via gavage at a dose level of 10 mg/kg (dosing volume of 2 mL/kg body weight). Following a wash-out period of a minimum of three days, the same three dogs were administered the test article formulation via an IV bolus push over approximately 1-2 minutes at a dose level of 3 mg/kg (dosing volume of 0.5 mL/kg). The vehicle for oral gavage dosing was 0.5% HPMC; the vehicle for IV injection was sterile phosphate buffered saline (PBS; pH 7.4). […] Animals were returned to quarantine after the last blood collection.
After IV administration at 3 mg/kg, the test article was quantifiable up to the 4-hour time point for all animals and tmax was about 5 minutes. Since the test article was not quantifiable at the 6-hour and subsequent time points for IV administration, […] and bioavailability could not be calculated.

[9] = test system: STZ-induced mechanical allodynia; assay: Streptozotocin (STZ) diabetic neuropathy model; format: in vivo, mice; conditions: FIG. 14
Description: Streptozotocin (STZ) destroys insulin-producing cells and generates a diabetic phenotype in mice. Animals were dosed with STZ on day −7. By day 0, animals are hyperglycemic and hyperalgesic (day 0 BL).

[10] = test system: established incision-induced mechanical hyperalgesia; assay: Brennan incisional pain model, treatment paradigm; format: in vivo, rat
Excerpt: Two incisional pain models were used to assess Compound 1 effects on hyperalgesia. The first model is referred to as the Brennan model in which, under anesthesia, a 1 cm longitudinal incision to the skin and underlying fascia of a rat hindpaw is made. The second is a variation but is a more invasive procedure in which the skin and muscle are spread apart using forceps which creates a longer-lasting hypersensitivity.
Using the Brennan protocol and a treatment paradigm in rat, Compound 1 (10 and 30 mg/kg PO), morphine (3 mg/kg SC) or vehicle were administered daily at 24 h post-incision, and again at 48 and 72 h post-incision. Mechanical thresholds were obtained at 1 h and 2 h post-dose in all cohorts on all days.

[11] = female, Sprague Dawley (CD IGS, Crl:CD(SD)), rat, plasma, po, 100 mg/kg
[12] = male, Sprague Dawley, rat, plasma, po, 100 mg/kg

CC1(C)SC(Nc2ccccc2O)=N[C@@H]1C(=O)O [Compound 1, (R)-2-(2-hydroxyphenylamino)-5,5-dimethyl-4,5-dihydrothiazole-4-carboxylic acid mono-hydrochloride]
cytotoxicity [1]: < 25%
IC50 (P-gp; Caco-2 cells, probe substrate digoxin (10 μM), bidirectional transport, 1-600 μM tested): > 600 µM
transporter inhibition (P-gp; P-gp): does not inhibit
stability in plasma [2]: stable
logD ([3]; pH 7.2, pH 7.2, 2 mL PBS Buffer: 2 mL Octanol): -0.39
logD ([3]; pH 7.2, pH 7.2, 3 mL PBS Buffer: 1 mL Octanol): -0.07
cytotoxicity at 100 µM ([4]; 100 μM): 31.3%
cytotoxicity at 600 µM ([4]; 600 μM): 33.6%
protein binding [5]: moderately protein-bound
PN-mediated oxidation of small-molecule organic substrates such as luminol (peroxynitrite (PN)): inhibits PN-mediated oxidation
allodynia in models of diabetic neuropathy [6]: alleviates allodynia; also recorded: reverses allodynia
Compound 1 Concentration in rat plasma ([7]; Female, 0.5 h post-dose, mono-hydrochloride, 100 mg/kg): 36.4 µg/mL and 44.7 µg/mL and 43.2 µg/mL and 45.4 µg/mL
Compound 1 Concentration in rat plasma ([7]; Female, 1 h post-dose, mono-hydrochloride, 100 mg/kg): 50.1 µg/mL and 63.6 µg/mL and 63.2 µg/mL and 69.7 µg/mL
Compound 1 Concentration in rat plasma ([7]; Female, 2 h post-dose, mono-hydrochloride, 100 mg/kg): 63.1 µg/mL and 58.9 µg/mL and 60.1 µg/mL and 72.8 µg/mL
Compound 1 Concentration in rat plasma ([7]; Female, 4 h post-dose, mono-hydrochloride, 100 mg/kg): 14.4 μg/mL (2×) and 31.5 μg/mL and 32.4 μg/mL and 20.4 μg/mL
Compound 1 Concentration in rat plasma ([7]; Female, 8 h post-dose, mono-hydrochloride, 100 mg/kg): 1.78 µg/mL and 1.80 µg/mL and 4.14 µg/mL and 4.21 µg/mL and 2.23 µg/mL
Compound 1 Concentration in rat plasma ([7]; Female, 24 h post-dose, mono-hydrochloride, 100 mg/kg): 0.250 µg/mL and 0.240 µg/mL and 0.489 µg/mL and 0.482 µg/mL and 0.428 µg/mL
Compound 1 Concentration in rat plasma ([7]; Male, 0.5 h post-dose, mono-hydrochloride, 100 mg/kg): 17.5 µg/mL and 14.0 µg/mL and 11.4 µg/mL and 10.8 µg/mL
Compound 1 Concentration in rat plasma ([7]; Male, 1 h post-dose, mono-hydrochloride, 100 mg/kg): 14.3 µg/mL and 22.6 µg/mL and 14.8 µg/mL and 11.0 µg/mL and 11.8 µg/mL
Compound 1 Concentration in rat plasma ([7]; Male, 2 h post-dose, mono-hydrochloride, 100 mg/kg): 15.7 µg/mL and 14.0 µg/mL and 14.9 µg/mL and 10.7 µg/mL
Compound 1 Concentration in rat plasma ([7]; Male, 4 h post-dose, mono-hydrochloride, 100 mg/kg): 4.82 µg/mL and 13.9 µg/mL and 1.56 µg/mL and 6.65 µg/mL and 3.81 µg/mL
Compound 1 Concentration in rat plasma ([7]; Male, 8 h post-dose, mono-hydrochloride, 100 mg/kg): 2.81 µg/mL and 1.57 µg/mL and 1.53 µg/mL and 3.05 µg/mL
Compound 1 Concentration in rat plasma ([7]; Male, 24 h post-dose, mono-hydrochloride, 100 mg/kg): 0.157 μg/mL and BQL (3×) and 1.04 μg/mL
concentration at 0.5 h [7, 11]: 40800 ng/mL
concentration at 2 h [7, 11]: 62600 ng/mL
concentration at 8 h [7, 11]: 2830 ng/mL
concentration at 24 h [7, 11]: 378 ng/mL
concentration at 0.5 h [7, 12]: 13500 ng/mL
concentration at 4 h [7, 12]: 6150 ng/mL
concentration at 8 h [7, 12]: 2110 ng/mL
concentration at 24 h [7, 12]: 599 ng/mL
epimerization in vivo (chiral methods) ([7]; rat plasma, mono-hydrochloride): no epimerization; also recorded: did not provide any evidence of epimerization
median t1-2 ([8]; 10 mg/kg PO): 1.4 h
epimerization (chiral column) ([8]; dog plasma): did not provide any evidence of epimerization
bioavailability ([8]; male, dog, plasma, oral, 10 mg/kg, read-out: mean oral bioavailability): 72%
Tmax ([8]; male, dog, plasma, 3 mg/kg IV): ~5 min
Cmax ([8]; male, dog, plasma, 10 mg/kg PO): 12000 ng/mL
Tmax ([8]; male, dog, plasma, 10 mg/kg PO): ~60 min
bioavailability ([8]; male, dog, plasma, read-out: oral bioavailability range): 56 to 91%
STZ-induced mechanical allodynia [9]: blocks STZ-induced mechanical allodynia
effect on established mechanical hyperalgesia (overall) ([10]; Compound 1 10 and 30 mg/kg PO daily, morphine 3 mg/kg SC, FIG. 12, mono-hydrochloride): prevented/reversed hyperalgesia completely; also recorded: reversed mechanical hyperalgesia
reversal of hyperalgesia ([10]; Day 1, 2-h time point, low-dose (10 mg/kg PO)): partial reversal
mechanical threshold ([10]; Day 1, 1 h post-dose, high-dose (30 mg/kg PO)): 26 g
mechanical threshold ([10]; Day 1, 2 h post-dose, high-dose (30 mg/kg PO)): 27 g
reversal of hyperalgesia ([10]; Day 2, 1 h and 2 h post-dosing, both 10 and 30 mg/kg PO cohorts): full reversal of hyperalgesia
mechanical threshold ([10]; Day 2 prior to dosing, high-dose (30 mg/kg PO)): 29 g
mechanical threshold ([10]; Day 2 prior to dosing, low-dose (10 mg/kg PO)): 26 g
hyperalgesia ([10]; Day 3 prior to dosing): did not show hyperalgesia
